Like-named read-outs stand apart in the source and are kept apart here.
What was measured:
Format in all cases: in vivo
[1] = test system: Eggs of Tetranychus Cinnabarinus; assay: Activity assay of eggs of Tetranychus cinnabarinus (spray method, ovicidal); details: Tetranychus cinnabarinus; for pest or weed control at 2 µg/mL: concentration 2 mg/L
Outline: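 Ovicidal spray test: compound dissolved in DMF, diluted with 1‰ Tween 80 (DMF ≤10%), sprayed on eggs laid during 24 h by females on broad bean leaves. Culture at 26±2° C, 70–80% RH, 16 h photoperiod; non-hatched eggs scored as dead when blank control hatched; three repeats.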

[2] = test system: adult Tetranychus cinnabarinus; assay: Activity assay of adult Tetranychus cinnabarinus (whole-plant spray on bean seedlings); details: 48 h; for pest or weed control at 1.25 µg/mL: concentration 1.25 mg/L
Outline: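 Whole plants sprayed after adult mite inoculation and initial census, using compound dissolved in DMF and made up with 1‰ Tween 80 water (DMF not above 10%). Mortality derived from survivor counts at 48 h after treatment. Each treatment run in triplicate.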

[3] = test system: Tetranychus cinnabarinus Nymphs; assay: Activity assay of Tetranychus cinnabarinus nymphs (spray on broad bean leaves)
Outline: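 Mortality, judged as no response to gentle touch, was scored 48 h after spraying Tetranychus cinnabarinus nymphs on broad bean leaves (eggs from females removed after 24 h). Test solutions: DMF-dissolved compound, ≤10% DMF, in 1‰ Tween 80; 26±2° C., 70%–80% RH, 16 h light; triplicate, blank control.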

[4] = concentration 5 mg/L, spray, non-incubated eggs counted as dead, read-out: ovicidal activity
[5] = concentration 2.5 mg/L, read-out: adult mite-killing activity
[6] = concentration 2.5 mg/L, 48 h, read-out: nymph-killing activity
[7] = eggs, parallel determination, read-out: Death rate (%)
[8] = adult mites, parallel determination, read-out: Death rate (%)
[9] = 48 h, concentration 2.5 mg/L, read-out: nymph-killing activity
[10] = 48 h, nymphs, concentration 0.5 mg/L, parallel determination, read-out: Death rate (%)
[11] = spray, read-out: ovicidal activity
[12] = read-out: adult mite-killing activity
[13] = 48 h, concentration 2 mg/L, read-out: nymph-killing activity

SMILES | pest or weed control at 5 µg/mL [1, 4] | pest or weed control at 2.5 µg/mL [2, 5] | pest or weed control at 2.5 µg/mL [3, 6] | pest or weed control at 2 µg/mL [1, 7] | pest or weed control at 1.25 µg/mL [2, 8] | pest or weed control at 2.5 µg/mL [3, 9] | pest or weed control at 0.5 µg/mL [3, 10] | pest or weed control at 2 µg/mL [1, 11] | pest or weed control at 1.25 µg/mL [2, 12] | pest or weed control at 2 µg/mL [3, 13] | pest or weed control at 5 µg/mL ([1]; read-out: ovicidal activity) | pest or weed control at 2.5 µg/mL [2, 12] | pest or weed control at 2.5 µg/mL ([3]; 48 h, read-out: nymph-killing activity)
CCn1nc(C)cc1/C(OCOC(=O)Cc1ccccc1)=C(\C#N)c1ccc(C(C)(C)C)cc1 [Compound 240] | ≥ 90% | ≥ 90% | ≥ 95% |  |  |  |  |  |  |  |  |  | 
CCn1nc(C)cc1/C(OCOC(=O)C(C)(C)CC)=C(\C#N)c1ccc(C(C)(C)C)cc1 [Compound 241] | ≥ 90% | ≥ 90% |  | 100% | 100% | ≥ 95% | 100% |  |  |  |  |  | 
C=CC(=O)OCO/C(=C(/C#N)c1ccc(C(C)(C)C)cc1)c1cc(C)nn1CC [Compound 242] | ≥ 90% | ≥ 90% |  |  |  | ≥ 95% |  |  |  |  |  |  | 
CCn1nc(C)cc1/C(OC(C)OC(C)=O)=C(\C#N)c1ccc(C(C)(C)C)cc1 (stereo not drawn) [Compound 251] | ≥ 90% | ≥ 90% |  | 100% | 100% | ≥ 95% | 100% | ≥ 90% | ≥ 90% | ≥ 90% |  |  | 
CCC(=O)OC(C)O/C(=C(/C#N)c1ccc(C(C)(C)C)cc1)c1cc(C)nn1CC (stereo not drawn) [Compound 252] | ≥ 90% | ≥ 90% |  | 100% | 100% | ≥ 95% | 100% | ≥ 90% | ≥ 90% | ≥ 90% |  |  | 
CCCC(=O)OC(C)O/C(=C(/C#N)c1ccc(C(C)(C)C)cc1)c1cc(C)nn1CC (stereo not drawn) [Compound 253] | ≥ 90% | ≥ 90% |  |  |  | ≥ 95% |  |  |  |  |  |  | 
CCn1nc(C)cc1/C(OC(C)OC(=O)C(C)C)=C(\C#N)c1ccc(C(C)(C)C)cc1 (stereo not drawn) [Compound 254] | ≥ 90% | ≥ 90% |  | 99% | 97% | ≥ 95% | 96% | ≥ 90% | ≥ 90% | ≥ 90% |  |  | 
CCn1nc(C)cc1/C(OC(C)OC(=O)C(C)(C)C)=C(\C#N)c1ccc(C(C)(C)C)cc1 (stereo not drawn) [Compound 255] | ≥ 90% | ≥ 90% |  | 96% | 95% | ≥ 95% | 95% | ≥ 90% | ≥ 90% | ≥ 90% |  |  | 
CCCCC(=O)OC(C)O/C(=C(/C#N)c1ccc(C(C)(C)C)cc1)c1cc(C)nn1CC (stereo not drawn) [Compound 256] | ≥ 90% | ≥ 90% |  |  |  | ≥ 95% |  |  |  |  |  |  | 
CCn1nc(C)cc1/C(OC(C)OC(=O)COC)=C(\C#N)c1ccc(C(C)(C)C)cc1 (stereo not drawn) [Compound 258] | ≥ 90% | ≥ 90% |  |  |  | ≥ 95% |  |  |  |  |  |  | 
CCn1nc(C)cc1/C(OC(C)OC(=O)C1CC1)=C(\C#N)c1ccc(C(C)(C)C)cc1 (stereo not drawn) [Compound 259] | ≥ 90% | ≥ 90% |  |  |  | ≥ 95% |  | ≥ 90% | ≥ 90% | ≥ 90% |  |  | 
CCn1nc(C)cc1/C(OC(C)OC(=O)CSC)=C(\C#N)c1ccc(C(C)(C)C)cc1 (stereo not drawn) [Compound 260] | ≥ 90% | ≥ 90% |  |  |  | ≥ 95% |  |  |  |  |  |  | 
CCn1nc(C)cc1/C(OC(C)OC(=O)C1CCCCC1)=C(\C#N)c1ccc(C(C)(C)C)cc1 (stereo not drawn) [Compound 261] | ≥ 90% | ≥ 90% |  |  |  | ≥ 95% |  |  |  |  |  |  | 
CCn1nc(C)cc1/C(OC(C)OC(=O)CF)=C(\C#N)c1ccc(C(C)(C)C)cc1 (stereo not drawn) [Compound 262] |  |  |  |  |  |  |  |  |  |  | ≥ 90% | ≥ 90% | ≥ 95%
CCn1nc(C)cc1/C(OC(C)OC(=O)C(F)(F)F)=C(\C#N)c1ccc(C(C)(C)C)cc1 (stereo not drawn) [Compound 263] | ≥ 90% | ≥ 90% |  |  |  | ≥ 95% |  |  |  |  |  |  | 
CCn1nc(C)cc1/C(OC(C)OC(=O)c1ccccc1)=C(\C#N)c1ccc(C(C)(C)C)cc1 (stereo not drawn) [Compound 264] | ≥ 90% | ≥ 90% |  |  |  | ≥ 95% |  |  |  |  |  |  | 
CCn1nc(C)cc1/C(OC(C)OC(=O)Cc1ccccc1)=C(\C#N)c1ccc(C(C)(C)C)cc1 (stereo not drawn) [Compound 265] | ≥ 90% | ≥ 90% | ≥ 95% |  |  |  |  |  |  |  |  |  | 
CCn1nc(C)cc1/C(OC(C)OC(=O)C(C)(C)CC)=C(\C#N)c1ccc(C(C)(C)C)cc1 (stereo not drawn) [Compound 266] | ≥ 90% | ≥ 90% |  |  |  | ≥ 95% |  |  |  |  |  |  | 
C=CC(=O)OC(C)O/C(=C(/C#N)c1ccc(C(C)(C)C)cc1)c1cc(C)nn1CC (stereo not drawn) [Compound 267] | ≥ 90% | ≥ 90% |  |  |  | ≥ 95% |  |  |  |  |  |  | 
CCn1nc(C)c(Cl)c1/C(OCOC(C)=O)=C(\C#N)c1ccc(C(C)(C)C)cc1 [Compound 301] | ≥ 90% | ≥ 90% |  | 95% | 90% | ≥ 95% | 90% | ≥ 90% | ≥ 90% | ≥ 90% |  |  | 
CCC(=O)OCO/C(=C(/C#N)c1ccc(C(C)(C)C)cc1)c1c(Cl)c(C)nn1CC [Compound 302] | ≥ 90% | ≥ 90% |  | 97% | 96% | ≥ 95% | 96% | ≥ 90% | ≥ 90% | ≥ 90% |  |  | 
CCCC(=O)OCO/C(=C(/C#N)c1ccc(C(C)(C)C)cc1)c1c(Cl)c(C)nn1CC [Compound 303] | ≥ 90% | ≥ 90% |  |  |  | ≥ 95% |  |  |  |  |  |  | 
CCn1nc(C)c(Cl)c1/C(OCOC(=O)C(C)C)=C(\C#N)c1ccc(C(C)(C)C)cc1 [Compound 304] | ≥ 90% | ≥ 90% |  |  |  | ≥ 95% |  |  |  |  |  |  | 
CCn1nc(C)c(Cl)c1/C(OCOC(=O)C(C)(C)C)=C(\C#N)c1ccc(C(C)(C)C)cc1 [Compound 305] | ≥ 90% | ≥ 90% |  |  |  | ≥ 95% |  | ≥ 90% | ≥ 90% | ≥ 90% |  |  | 
CCCCC(=O)OCO/C(=C(/C#N)c1ccc(C(C)(C)C)cc1)c1c(Cl)c(C)nn1CC [Compound 306] | ≥ 90% | ≥ 90% |  |  |  | ≥ 95% |  |  |  |  |  |  | 
CCn1nc(C)c(Cl)c1/C(OCOC(=O)CC(C)C)=C(\C#N)c1ccc(C(C)(C)C)cc1 [Compound 307] | ≥ 90% | ≥ 90% |  |  |  | ≥ 95% |  |  |  |  |  |  | 

Reference: patent US11104648B2, “Pyrazole derivative” (Zhejiang Research Institute of Chemical Industry Co., Ltd., priority 2018, dated 2021)
